Data taken from patent US20240138417A1, “TRICHODERMA-BASED BIOENHANCER FOR FOLIAR APPLICATION IN PLANTS” (YPF TECNOLOGÍA S.A., priority 2022, published 2024).

What was measured:
[1] = test system: Arabidopsis thaliana seedlings; assay: Auxin activity, root growth bioassay in A. thaliana seedlings; format: in vivo; conditions: 4-days old seedlings, MS-Agar; formulation 0.1, 1, 10, 25% v/v; IAA 1, 10 and 100 nM
Experimental: Auxin Activity • Auxin activity was determined by measuring the growth of the main root in seedlings of Arabidopsis thaliana, and the amount of side roots to estimate the root density according to Iglesias et al. (2014). Briefly, 4-days old A. thaliana seedlings were grown in a MS-Agar medium supplemented with different concentrations of the formulation of Example 5 (0.1, 1, 10, 25% v/v). As reference, different concentrations of indole-acetic acid (IAA) were used (1, 10 and 100 nM). Three independent assays were carried out, with 8 seedlings per treatment (N=24).

[2] = test system: cucumber cotyledons (Cucumis sativus var. Runner); assay: Cytokinin activity, cucumber cotyledons greening bioassay (chlorophyll content); conditions: incubated 20 h, then light 16 hs; SPAD detector and acetone extraction
Experimental: Cytokinin Activity • Cytokinin activity was determined by quantifying the chlorophyll content in cucumber cotyledons (Fletcher et al., 1982). Briefly, cucumber (Cucumis sativus var. Runner) seeds were germinated and grown in darkness for 7 days. Then, the cotyledons were cut and incubated for 20 h under different concentrations of the formulation of Example 5 (0.1, 1, 10 and 100% v/v). As a positive control, different concentrations of a cytokinin analog, kinetin, were used (0.01, 0.1, 1 and 10 μg/ml). Then the cotyledons were exposed to light for 16 hs, and the chlorophyll content was determined by two methods: by means of a manual SPAD detector (Chlorophyll meter SPAD-502, Konica Minolta), and by extracting the chlorophyll with acetone (Arnon 1949). Three independent assays were carried out, with 8 cotyledons per treatment (N=24).

Question: Which results are given for `O=C(O)Cc1c[nH]c2ccccc12` [IAA, indole-acetic acid]?
Answer: growth of the main root [1]: dose-dependent shortening of the main root; number of side roots [1]: increase in the number of side roots

Question: With `c1coc(CNc2ncnc3[nH]cnc23)c1` [kinetin] as the compound, how does the “greening of cotyledons (chlorophyll content)” value [2] read?
Answer: Its value is “stimulated the greening of the etiolated cotyledons depending on the dose”.
